From patent publication US7888379B2, “Thiazole derivatives and use thereof” (Merck Serono SA, priority 2005, dated 2011)

Columns and labels:
[1] = target: Human recombinant GST-PI3Kγ (Homo sapiens, UniProt P48736); assay: High Throughput PI3K Lipid Kinase Assay (SPA, neomycin-coated beads); format: biochemical
From the text: a) High Throughput PI3K Lipid Kinase Assay (Binding Assay):
The efficacy of compounds of the invention in inhibiting the PI3K induced-lipid phosphorylation may be tested in the following binding assay
The assay combines the scintillation proximity assay technology (SPA, Amersham) with the capacity of neomycin (a polycationic antibiotic) to bind phospholipids with high affinity and specificity. The Scintillation Proximity Assay is based on the properties of weakly emitting isotopes (such as ^3H, ^125I, ^33P). Coating SPA beads with neomycin allows the detection of phosphorylated lipid substrates after incubation with recombinant PI3K and radioactive ATP in the same well, by capturing the radioactive phospholipids to the SPA beads through their specific binding to neomycin.
To a 384 wells MTP containing 5 μl of the test compound of Formula (I) (solubilized in 6% DMSO; to yield a concentration of 100, 30, 10, 3, 1, 0.3, 0.1, 0.03, 0.01, 01 μM of the test compound), the following assay components are added. 1) 5 μl (58 ng) of Human recombinant GST-PI3Kγ (in Hepes 40 mM, pH 7.4, DTT 1 mM and ethylenglycol 5%) 2) 10 μl of lipid micelles and 3) 10 μl of Kinase buffer ([^33P]γ-ATP 45 μM/60 nCi, MgCl2 30 mM, DTT 1 mM, β-Glycerophosphate 1 mM, Na3VO4 100 μM, Na Cholate 0.3%, in Hepes 40 mM, pH 7.4). After incubation at room temperature for 180 minutes, with gentle agitation, the reaction is stopped by addition of 60 μl of a solution containing 100 μg of neomycin-coated PVT SPA beads in PBS containing ATP 10 mM and EDTA 5 mM. The assay is further incubated at room temperature for 60 minutes with gentle agitation to allow binding of phospholipids to neomycin-SPA beads. After precipitation of the neomycin-coated PVT SPA beads for 5 minutes at 1500×g, radioactive PtdIns(3)P is quantified by scintillation counting in a Wallac MicroBeta™ plate counter.
The values indicated in Table I below refer to the IC50 (nM) with respect to PI3Kγ, i.e. the amount necessary to achieve 50% inhibition of said target. Said values show a considerable inhibitory potency of thiazole compounds with regard to PI3Kγ.

Akt/PKB phosphorylation = assay: Cell based ELISA to monitor PI3K inhibition: Akt/PKB phosphorylation in Raw 264-7 macrophages after Complement 5a stimulation; conditions: Mus musculus, RAW264.7, phospho Serine 473 Akt, read-out: Cell Assay (P-Akt, Elisa) IC50
Method: b) Cell Based ELISA to Monitor PI3K Inhibition:
The efficacy of compounds of the invention in inhibiting the PI3K induced Akt/PKB phosphorylation may be tested in the following cell based assay.
Measurement of Akt/PKB phosphorylation in macrophages after stimulation with Complement 5a: Raw 264: Raw 264-7 macrophages (cultured in DMEM-F12 medium containing 10% Fetal Calf serum and antibiotics) are plated at 20'000 cells/well in a 96 MTP 24 h before cell stimulation. Prior to the stimulation with […] of Complement 5a during 5 minutes, Cells are serum starved for 2 h, and pretreated with inhibitors for 20 minutes. After stimulation cells are fixed in 4% formaldehyde for 20 minutes and washed 3 times in PBS containing 1% Triton X-100 (PBS/Triton). […] Next, phosphorylated Akt/PKB is detected by an overnight incubation at 4° C. with primary antibody (anti phospho Serine 473 Akt IHC, Cell Signaling) diluted 800-fold in PBS/Triton, containing 5% bovine serum albumin (BSA). After 3 washes in PBS/Triton, cells are incubated for 60 minutes with a peroxidase conjugated goat-anti-rabbit secondary antibody (1/400 dilution in PBS/Triton, containing 5% BSA), washed 3 times in PBS/Triton, and 2 times in PBS and further incubated in 100 μl of luminescent substrate reagent solution (Pierce) for 2 minutes, followed by the reading (1 s/well). […]

Neutrophils recruitment = assay: Thioglycollate-induced peritoneal cavity cell recruitment model; format: in vivo; conditions: at 10 mg/kg after 4 hours, oral, female C3H mice, thioglycollate i.p.
Method: Thioglycollate-induced Peritoneal Cavity Cell Recruitment Model
The in vivo efficacy of compounds of the invention in inhibiting the migration of leukocytes upon intraperitoneal challenge of thioglycollate may be tested with the following assay.
8-10 weeks old female C3H mice are fasted during 18 hours. 15 minutes prior the intraperitoneal injection of thioglycollate (1.5%, 40 ml/kg), the mice are treated orally with Thiazoles of Formula (I). Control mice receive CMC/Tween as vehicle (10 ml/kg). The mice are then sacrificed by CO2 inhalation and the peritoneal cavity is washed two times with 5 ml of ice-cold PBS/1 mM EDTA. The ravages are done 4 hours or 48 hours after thioglycollate challenge to evaluate neutrophils or macrophages recruitment, respectively. The white blood cells (neutrophils, lymphocytes or macrophages) are counted using a Beckman Coulter® A°T 5diff™.
Dexamethasone is used as reference drug.

Chain of Human recombinant GST-PI3Kγ (P48736 whole entry): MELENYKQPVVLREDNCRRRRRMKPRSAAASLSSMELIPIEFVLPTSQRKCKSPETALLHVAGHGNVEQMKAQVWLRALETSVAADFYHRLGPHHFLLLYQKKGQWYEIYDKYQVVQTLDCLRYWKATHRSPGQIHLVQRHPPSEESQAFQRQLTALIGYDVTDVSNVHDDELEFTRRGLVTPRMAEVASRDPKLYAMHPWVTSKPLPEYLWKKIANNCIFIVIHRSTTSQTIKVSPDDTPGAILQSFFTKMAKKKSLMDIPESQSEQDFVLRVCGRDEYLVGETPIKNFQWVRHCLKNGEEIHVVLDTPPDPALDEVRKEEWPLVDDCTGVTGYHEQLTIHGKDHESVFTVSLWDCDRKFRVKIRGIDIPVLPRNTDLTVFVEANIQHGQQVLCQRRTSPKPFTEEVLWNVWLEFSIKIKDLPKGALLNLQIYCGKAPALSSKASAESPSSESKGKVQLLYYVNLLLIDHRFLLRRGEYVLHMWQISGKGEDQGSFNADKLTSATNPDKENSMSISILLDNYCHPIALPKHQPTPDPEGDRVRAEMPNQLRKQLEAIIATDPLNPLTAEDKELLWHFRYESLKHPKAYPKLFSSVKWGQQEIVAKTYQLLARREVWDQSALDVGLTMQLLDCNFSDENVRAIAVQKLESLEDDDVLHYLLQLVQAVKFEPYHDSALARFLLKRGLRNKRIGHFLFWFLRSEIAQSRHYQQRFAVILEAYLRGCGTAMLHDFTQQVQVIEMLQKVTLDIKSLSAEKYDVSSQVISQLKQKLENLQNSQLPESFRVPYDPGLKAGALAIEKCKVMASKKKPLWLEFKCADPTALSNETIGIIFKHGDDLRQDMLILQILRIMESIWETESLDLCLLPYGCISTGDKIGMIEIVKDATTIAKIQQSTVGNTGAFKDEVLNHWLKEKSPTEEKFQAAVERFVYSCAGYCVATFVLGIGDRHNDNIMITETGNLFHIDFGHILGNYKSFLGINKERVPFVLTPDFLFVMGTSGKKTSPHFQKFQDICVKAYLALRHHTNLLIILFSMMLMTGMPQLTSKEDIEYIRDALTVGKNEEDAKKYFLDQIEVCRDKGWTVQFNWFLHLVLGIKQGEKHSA

Row | Structure (SMILES) | IC50 [1] [µM] | IC50 (Akt/PKB phosphorylation) [µM] | % of inhibition of Neutrophils recruitment (Neutrophils recruitment) [%]
1 | CC(=O)Nc1nc(C)c(-c2ccc(C(=O)N3CCCC(O)C3)s2)s1 (stereo not drawn) [Example 8, N-(5-{5-[(3-hydroxypiperidin-1-yl)carbonyl]-2-thienyl}-4-methyl-1,3-thiazol-2-yl)acetamide] | 1.1 | – | –
2 | C=CCNS(=O)(=O)c1ccc(-c2sc(NC(C)=O)nc2C)s1 [Example 12, N-(5-[5-{(allylamino)sulfonyl]-2-thienyl}-4-methyl-1,3-thiazol-2-yl) acetamide] | – | 0.322 | 38
3 | CC(=O)Nc1nc(C)c(-c2ccc(CO)s2)s1 [Example 3, N-[5-[5-(hydroxymethyl)-2-thienyl]-4-methyl-1,3-thiazol-2-yl]acetamide] | 0.219 | – | –
4 | CC(=O)Nc1nc(C)c(-c2ccc(C=O)s2)s1 [Example 1, N-[5-(5-formyl-2-thienyl)-4-methyl-1,3-thiazol-2-yl]acetamide] | 0.215 | – | –
5 | CC(=O)Nc1nc(C)c(-c2ccc(C(=O)N3CCOCC3)s2)s1 [Example 5] | 0.249 | – | –
